# Source: the PolyMetriX glass transition set
row,glass transition temperature [°C],Structure (SMILES)
1,42.00,*/C=C(/*)CCCOc1ccc(OC(=O)c2ccc(OCCCCCCCC)cc2)cc1 (repeat unit)
2,215.00,*C(=O)Nc1ccc(-c2cc(-c3ccccc3)cc(-c3ccc(NC(=O)c4ccc5c(c4)C(=O)N(c4ccc(NC(=O)Nc6ccc(N7C(=O)c8ccc(*)cc8C7=O)cc6)cc4)C5=O)cc3)n2)cc1 (repeat unit)
3,233.00,*C(=O)Nc1ccc(-c2ccc(NC(=O)c3ccc4c(c3)C(=O)N(c3ccc(NC(=O)Nc5ccc(N6C(=O)c7ccc(*)cc7C6=O)cc5)cc3)C4=O)cc2)cc1 (repeat unit)
4,358.00,*C(=O)Nc1ccc(-c2ccc(NC(=O)c3ccc4c(c3)C(=O)N(c3ccc(Oc5ccc(N6C(=O)c7ccc(*)cc7C6=O)cc5-c5ccccc5)c(-c5ccccc5)c3)C4=O)cc2)cc1 (repeat unit)
5,301.00,*C(=O)Nc1ccc(-c2ccc(NC(=O)c3ccc4c(c3)C(=O)N(c3ccc(Oc5cccc6c(N7C(=O)c8ccc(*)cc8C7=O)cccc56)cc3)C4=O)cc2)cc1 (repeat unit)
6,292.00,*C(=O)Nc1ccc(C(c2ccc(NC(=O)c3ccc4c(c3)C(=O)N(c3ccc(Oc5ccc6ccc(Oc7ccc(N8C(=O)c9ccc(*)cc9C8=O)cc7)cc6c5)cc3)C4=O)cc2)(C(F)(F)F)C(F)(F)F)cc1 (repeat unit)
7,319.00,*C(=O)Nc1ccc(C2(c3ccc(N4C(=O)c5ccc(*)cc5C4=O)cc3)CCCCC2)cc1 (repeat unit)
8,123.00,*C(=O)Nc1ccc(Cc2ccc(N3C(=O)CC(N4C(=O)c5ccc(*)cc5C4=O)C3=O)cc2)cc1 (repeat unit)
9,253.00,*C(=O)Nc1ccc(Cc2ccc(NC(=O)c3ccc4c(c3)C(=O)N(c3ccc(-c5sc(-c6ccc(N7C(=O)c8ccc(*)cc8C7=O)cc6)c(-c6ccccc6)c5-c5ccccc5)cc3)C4=O)cc2)cc1 (repeat unit)
10,120.00,*C(=O)Nc1ccc(N2C(=O)CC(N3C(=O)c4ccc(*)cc4C3=O)C2=O)cc1 (repeat unit)
11,74.00,*C(=O)OCCCCCCCCCCCCOC(=O)c1ccc(NC(=O)c2ccc(N3C(=O)c4ccc(*)cc4C3=O)cc2)cc1 (repeat unit)
12,106.00,*C(=O)OCCCCCCCOC(=O)c1ccc(NC(=O)c2ccc(N3C(=O)c4ccc(*)cc4C3=O)cc2)cc1 (repeat unit)
13,107.00,*C(=O)OCCCCCCOC(=O)c1ccc(NC(=O)c2ccc(N3C(=O)c4ccc(*)cc4C3=O)cc2)cc1 (repeat unit)
14,130.00,*C(=O)OCCCCOC(=O)c1ccc(NC(=O)c2ccc(N3C(=O)c4ccc(*)cc4C3=O)cc2)cc1 (repeat unit)
15,79.00,*CCCCCCCCOC(=O)Nc1ccc(Cc2ccc(NC(=O)O*)cc2)cc1 (repeat unit)
16,109.00,*CCCCOC(=O)Nc1ccc(Cc2ccc(NC(=O)O*)cc2)cc1 (repeat unit)
17,119.00,*CCCOC(=O)Nc1ccc(Cc2ccc(NC(=O)O*)cc2)cc1 (repeat unit)
18,136.40,*CCN(CCOC(=O)Nc1ccc(Cc2ccc(NC(=O)O*)cc2)cc1)c1ccc(/N=N/c2ccc([N+](=O)[O-])cc2)cc1 (repeat unit)
19,31.90,*CCN(CCOC(=O)Nc1ccc(Cc2ccc(NC(=O)O*)cc2)cc1)c1ccccc1 (repeat unit)
20,98.00,*CCOC(=O)Nc1ccc(Cc2ccc(NC(=O)OCCOc3ccc(O*)cc3)cc2)cc1 (repeat unit)
21,329.00,*Cc1ccc2oc(=O)c(C(=O)Nc3ccc(C(c4ccc(NC(=O)c5cc6cc(*)ccc6oc5=O)cc4)(C(F)(F)F)C(F)(F)F)cc3)cc2c1 (repeat unit)
22,319.00,*Nc1ccc(-c2ccc(NC(=O)c3cc(C(*)=O)cc(S(=O)(=O)c4ccccc4)c3)cc2)cc1 (repeat unit)
23,300.00,*Nc1ccc(C(=O)c2ccc(NC(=O)c3ccc(C(*)=O)cc3)cc2)cc1 (repeat unit)
24,253.20,*Nc1ccc(C(=O)c2ccc(NC(=O)c3cccc(C(*)=O)c3)cc2)cc1 (repeat unit)
25,217.00,*Nc1ccc(Cc2ccc(NC(=O)Nc3ccccc3CCc3ccc(NC(*)=O)cc3)cc2)cc1 (repeat unit)
26,303.00,*Nc1ccc(Cc2ccc(NC(=O)c3cc(C(*)=O)cc(N4C(=O)C5C6C=CC(C6)C5C4=O)c3)cc2)cc1 (repeat unit)

row,glass transition temperature [°C],Structure (SMILES)
1,287.00,*Nc1ccc(Cc2ccc(NC(=O)c3cc(C(*)=O)cc(N4C(=O)C=CC4=O)c3)cc2)cc1 (repeat unit)
2,275.00,*Nc1ccccc1-c1ccc(NC(=O)c2ccc(C(*)=O)cc2)cc1 (repeat unit)
3,248.00,*Nc1ccccc1-c1ccc(NC(=O)c2cccc(C(*)=O)c2)cc1 (repeat unit)
4,198.00,*Nc1ccccc1CCc1ccc(NC(*)=O)cc1 (repeat unit)
5,200.00,*OC(=O)Nc1ccc(Cc2ccc(NC(=O)OC3CC4CC(*)CC(C3)O4)cc2)cc1 (repeat unit)
6,40.00,*OC(COC(=O)Nc1ccc(Cc2ccc(NC(*)=O)cc2)cc1)c1ccco1 (repeat unit)
7,133.00,*Oc1ccc(/N=C/C=N/c2ccc(OC(=O)Nc3ccc(Cc4ccc(NC(*)=O)cc4)cc3)cc2)cc1 (repeat unit)
8,266.00,*Oc1ccc(C(=O)Nc2ccc(C(c3ccc(NC(=O)c4ccc(OC(=O)c5ccc(C(*)=O)cc5)cc4)cc3)(C(F)(F)F)C(F)(F)F)cc2)cc1 (repeat unit)
9,251.00,*Oc1ccc(C(=O)Nc2ccccc2-c2ccc(NC(=O)c3ccc(*)cc3)cc2)cc1 (repeat unit)
10,218.00,*Oc1ccc(Oc2ccc(C(=O)Nc3ccc(Cc4ccc(NC(=O)c5ccc(*)cc5)cc4)cc3)cc2)cc1-c1ccccc1 (repeat unit)
11,198.00,*Oc1ccc(Oc2ccc(C(=O)c3ccc(NC(=O)c4cccc(C(=O)Nc5ccc(C(=O)c6ccc(*)cc6)cc5)c4)cc3)cc2)cc1 (repeat unit)
12,207.00,*Oc1ccc(S(=O)(=O)c2ccc(Oc3ccc(C(=O)c4ccc(-c5ccc(C(=O)c6ccc(*)cc6)cc5)cc4)cc3)cc2)cc1 (repeat unit)
13,190.00,*Oc1cccc(Oc2ccc(C(=O)c3ccc(NC(=O)c4ccc(C(=O)Nc5ccc(C(=O)c6ccc(*)cc6)cc5)cc4)cc3)cc2)c1 (repeat unit)
14,214.00,*Oc1cccc(Oc2ccc(C(=O)c3ccc(NC(=O)c4cccc(C(=O)Nc5ccc(C(=O)c6ccc(*)cc6)cc5)c4)cc3)cc2)c1 (repeat unit)
15,335.00,*c1ccc(C(=O)Nc2ccc(N3C(=O)c4ccc(-c5ccc6c(c5)C(=O)N(*)C6=O)cc4C3=O)cc2)cc1 (repeat unit)
16,301.00,*c1ccc(C(=O)c2ccc(-n3nc(-c4ccc(Oc5ccc(-c6nn(*)c(=O)c7ccccc67)cc5)cc4)c4ccccc4c3=O)cc2)cc1 (repeat unit)
17,276.00,*c1ccc(Cc2ccc(N3C(=O)CC(Nc4ccc(N(c5ccc(NC6CC(=O)N(*)C6=O)cc5)c5ccc([N+](=O)[O-])cc5)cc4)C3=O)cc2)cc1 (repeat unit)
18,250.00,*c1ccc(Cc2ccc(NC(=O)c3ccc(Oc4ccc5c(c4)C(=O)N(*)C5=O)cc3)cc2)cc1 (repeat unit)
19,258.00,*c1ccc(Cc2ccc(NC(=O)c3ccc(Oc4cccc5c4C(=O)N(*)C5=O)cc3)cc2)cc1 (repeat unit)
20,272.00,*c1ccc(NC(=O)c2ccc(C(=O)Nc3ccc(-c4nnc(*)o4)cc3)c(Oc3ccccc3)c2)cc1 (repeat unit)
21,140.00,*c1ccc(NC(=O)c2ccc(OCCOCCOCCOCCOc3ccc(C(=O)Nc4ccc5[nH]c(*)nc5c4)cc3)cc2)cc1 (repeat unit)
22,155.00,*c1ccc(NC(=O)c2ccc(OCCOCCOCCOc3ccc(C(=O)Nc4ccc5[nH]c(*)nc5c4)cc3)cc2)cc1 (repeat unit)
23,152.00,*c1ccc(NC2CC(=O)N(c3ccc(-c4sc(-c5ccc(N6C(=O)CC(Nc7ccc(-c8nc(-c9ccc(-c%10nc(-c%11ccc([N+](=O)[O-])cc%11)c(-c%11ccc([N+](=O)[O-])cc%11)[nH]%10)cc9)[nH]c8*)cc7)C6=O)cc5)c(-c5ccccc5)c4-c4ccccc4)cc3)C2=O)cc1 (repeat unit)
24,273.00,*c1ccc(Oc2ccc(C(=O)c3ccc(-c4ccc(C(=O)c5ccc(Oc6ccc(-c7nc(-c8ccc(-c9nc(*)c(-c%10ccccc%10)[nH]9)cc8)[nH]c7-c7ccccc7)cc6)cc5)cc4)cc3)cc2)cc1 (repeat unit)
25,276.00,*c1ccc(Oc2ccc(C(=O)c3ccc(-c4ccc(C(=O)c5ccc(Oc6ccc(-c7nc(-c8cccc(-c9nc(*)c(-c%10ccccc%10)[nH]9)c8)[nH]c7-c7ccccc7)cc6)cc5)cc4)cc3)cc2)cc1 (repeat unit)
26,270.00,*c1cccc(C(=O)Nc2ccc(Cc3ccc(N4C(=O)c5ccc(S(=O)(=O)c6ccc7c(c6)C(=O)N(c6ccc(Cc8ccc(NC(=O)c9cccc(-c%10nc%11cc(-c%12ccc%13[nH]c(*)nc%13c%12)ccc%11[nH]%10)c9)cc8)cc6)C7=O)cc5C4=O)cc3)cc2)c1 (repeat unit)

row,Structure (SMILES),glass transition temperature [°C]
1,*C(=O)Nc1ccc(C(=O)c2ccc(NC(=O)c3ccc4c(c3)C(=O)N(c3cccc(P(=O)(c5ccccc5)c5cccc(N6C(=O)c7ccc(*)cc7C6=O)c5)c3)C4=O)cc2)cc1 (repeat unit),238.00
2,*Nc1ccc(C(c2ccc(NC(=O)c3ccc(-c4ccc(C(*)=O)cc4)cc3)cc2)(P2(=O)Oc3ccccc3-c3ccccc32)P2(=O)Oc3ccccc3-c3ccccc32)cc1 (repeat unit),251.00
3,*Nc1ccc(C(c2ccc(NC(=O)c3ccc(C(c4ccc(C(*)=O)cc4)(C(F)(F)F)C(F)(F)F)cc3)cc2)(P2(=O)Oc3ccccc3-c3ccccc32)P2(=O)Oc3ccccc3-c3ccccc32)cc1 (repeat unit),235.00
4,*Nc1ccc(Cc2ccc(NC(=O)c3ccc(P(=O)(c4ccccc4)c4ccc(C(*)=O)cc4)cc3)cc2)cc1 (repeat unit),307.00
